In brackets after ≈: the same amount, converted by molar mass. Read-outs that look alike come from different tables or passages of the source.

The values below come from paper PMC12829593 (Journal of cystic fibrosis : official journal of the …, 2025).

One series deals with CFTR. The conditions noted are these: estimated from published data, compounds used concurrently; cited from earlier work.
Series [1] is classed as in vivo, human. The conditions noted are these: mean (SD); for Cavg / Cmin / AUC / Cmax / half-life / Tmax: plasma; for Cavg / Cmin / Cmax: steady state; for AUC / Cmax / half-life / Tmax: human, oral; for AUC: AUCτ, AUC24 (ELX, TEZ) or AUC12 (IVA).
Series [2] in a line: Tacrolimus concentration in transplant participants. The following applies: Transplant (n=12), concurrent ETI, mean (SD). The class given is in vivo, human.
The mark [3] stands for this setting: Transplant group (n=12), concomitant tacrolimus.
[4] abbreviates: T1/2, Non-transplant group (n=14).
Setting [5] is: T1/2, Transplant group (n=12), concomitant tacrolimus.

As a reminder, the EC50 is the concentration giving half of the maximal effect. The EC90 is the concentration needed for an effect of 90%. One may read the AUC as concentration integrated over time. Read a low AUC as low exposure. As usually defined, the Cmax is the maximum level reached in the sampled fluid or tissue. A word on the half-life: it is the time in which the quantity being followed falls by half. What is called Tmax is the time from dosing to the highest level. `Cc1nn(C)cc1S(=O)(=O)NC(=O)c1ccc(-n2ccc(OCC(C)(C)C(F)(F)F)n2)nc1N1C[C@@H](C)CC1(C)C` [Elexacaftor, elexacaftor]: in the series on CFTR, the EC50 is 0.5 µg/mL (≈ 0.837 µM) and the EC90 was 4.5 µg/mL (≈ 7.53 µM). In series [1] (Non-transplant group (n=14)), the CLss/F is 2.05(2.29) L/h, the V/F is listed as 107(155), the Cavg is reported as 6398(3233) ng/mL and the Cmin is given as 4327(2359) ng/mL. Also, in series [1] (Non-transplant group (n=14)), the AUC came to 154000 ng·h/mL, the highest level (Cmax) was 9080 ng/mL and the Tmax came out at 4.79 h. In series [1] (setting [3]), the CLss/F is recorded as 1.23(0.79) L/h, the V/F was 37.4(15.0), the Cavg is 8339(3152) ng/mL and the Cmin is 5632(2664) ng/mL. In addition, in series [1] (setting [3]), the AUC was found to be 200000 ng·h/mL, the Cmax is 11400 ng/mL and the Tmax is 7.33 h. The half-life in series [1] (setting [4]) is 35 h. The compound also showed a half-life in series [1] (setting [5]) of 23.6 h.

With `CC(C)(C)c1cc(C(C)(C)C)c(NC(=O)c2c[nH]c3ccccc3c2=O)cc1O` [Ivacaftor, ivacaftor], in the series on CFTR, the EC50 was 0.04 µg/mL (≈ 0.102 µM) and the EC90 was 0.35 µg/mL (≈ 0.892 µM). In series [1] (Non-transplant group (n=14)), the CLss/F was 27.9 (47.4) L/h, the V/F is given as 337 (441), the Cavg was 947 (507) ng/mL and the Cmin is listed as 525 (325) ng/mL. Further, in series [1] (Non-transplant group (n=14)), the AUC is 11400 ng·h/mL, the Cmax stood at 1380 ng/mL and the Tmax worked out at 4 h. In series [1] (Non-transplant group (n=14), listed as IVA), this compound yielded a Cmin of 525 ng/mL. In series [1] (setting [3]), the CLss/F is 19.9 (15.5) L/h, the V/F is reported as 168 (71), the Cavg is 833 (342) ng/mL and the Cmin is given as 467 (203) ng/mL. Besides, in series [1] (setting [3]), the AUC came to 9900 ng·h/mL and the Tmax amounted to 4.6 h. This compound also showed a half-life in series [1] (setting [4]) of 9.4 h. In series [1] (setting [5]), this compound had a half-life of 7.8 h.

Consider `C=CC[C@@H]1/C=C(\C)C[C@H](C)C[C@H](OC)[C@H]2O[C@@](O)(C(=O)C(=O)N3CCCC[C@H]3C(=O)O[C@H](/C(C)=C/[C@@H]3CC[C@@H](O)[C@H](OC)C3)[C@H](C)[C@@H](O)CC1=O)[C@H](C)C[C@@H]2OC` [Tacrolimus, tacrolimus], for which the Tacrolimus concentration in series [2] is given as 6.5 (1.5) ng/mL.

For `CC(C)(CO)c1cc2cc(NC(=O)C3(c4ccc5c(c4)OC(F)(F)O5)CC3)c(F)cc2n1C[C@@H](O)CO` [Tezacaftor, tezacaftor], in the series with CFTR, the EC50 was 0.4 µg/mL (≈ 0.768 µM) and the 90% effect concentration (EC90) is 3.5 µg/mL (≈ 6.72 µM). In series [1] (Non-transplant group (n=14)), the CLss/F is given as 1.53(0.83) L/h, the V/F was 37.1(24.4), the Cavg is given as 3294(1314) ng/mL and the Cmin is reported as 1746(1050) ng/mL. In series [1] (Non-transplant group (n=14)), the AUC was 79000 ng·h/mL, the concentration peaked (Cmax) at 7460 ng/mL and the Tmax is 2.21 h. Further, in series [1] (setting [3]), the CLss/F was 1.54(1.07) L/h, the V/F is recorded as 47.5(59), the Cavg is given as 3403(1240) ng/mL and the Cmin is listed as 2016(904) ng/mL. For the same compound, in series [1] (setting [3]), the AUC was 82000 ng·h/mL, the Cmax is 6520 ng/mL and the Tmax worked out at 3.08 h. This compound also showed a half-life in series [1] (setting [4]) of 19 h. Also, the half-life in series [1] (setting [5]) is 21 h.
